Reference: patent US20100093721A1, “PHENYL AND HETEROARYL SUBSTITUTED THIENO[2,3-d]PYRIMIDINES AND THEIR USE AS ADENOSINE A2a RECEPTOR ANTAGONISTS” (priority 2008, published 2010)
Counter-ions that a name gives are not always drawn.

Experiments:
[1] = target: T1, human adenosine A2a receptor (Homo sapiens, UniProt P29274); test: Adenosine A2a Receptor Functional Assay (A2AGAL2); assay type: cell-based; conditions: CHO-K1 cells, cAMP inducible beta-galactosidase reporter, 15 nM NECA agonist challenge
T1 construct: expressed in transfected cells; host or cells: CHO-K1
T1 sequence (P29274 whole entry): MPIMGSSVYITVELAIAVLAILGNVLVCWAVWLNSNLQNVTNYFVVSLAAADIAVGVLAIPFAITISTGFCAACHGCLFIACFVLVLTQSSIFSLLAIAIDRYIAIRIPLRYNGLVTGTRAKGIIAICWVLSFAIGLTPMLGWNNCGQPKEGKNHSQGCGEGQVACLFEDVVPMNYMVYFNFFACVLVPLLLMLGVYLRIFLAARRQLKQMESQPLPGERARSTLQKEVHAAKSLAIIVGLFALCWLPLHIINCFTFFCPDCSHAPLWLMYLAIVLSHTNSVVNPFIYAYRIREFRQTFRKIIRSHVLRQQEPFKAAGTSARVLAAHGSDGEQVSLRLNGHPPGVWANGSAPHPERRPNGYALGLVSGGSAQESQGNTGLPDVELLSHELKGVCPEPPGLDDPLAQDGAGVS
Experimental: Adenosine A2a Receptor Functional Assay (A2AGAL2)
Prior to assay, these plates were cultured for two days at 37° C., 5% CO2, 90% Rh. On the day of the functional assay, culture media was removed and replaced with 45 uL assay medium (Hams/F-12 Modified (Mediatech #10-080CV) supplemented w/0.1% BSA). Test compounds were diluted and 11 point curves created at a 1000× concentration in 100% DMSO. Immediately after addition of assay media to the cell plates, 50 nL of the appropriate test compound antagonist or agonist control curves were added to cell plates using a Cartesian Hummingbird. […] A control curve of NECA, a DMSO/Media control, and a single dose of Forskolin (Sigma F3917) were also included on each plate. After additions, cell plates were allowed to incubate at 37° C., 5% CO2, 90% Rh for 5.5-6 hours. After incubation, media was removed, and cell plates were washed 1×50 uL with DPBS w/o Ca & Mg (Mediatech 21-031-CV). Into dry wells, 20 uL of 1× Reporter Lysis Buffer (Promega E3971 (diluted in dH2O from 5× stock)) was added to each well and plates frozen at −20° C. overnight. For β-galactosidase enzyme colorimetric assay, plates were thawed out at room temperature and 20 μL 2× assay buffer (Promega) was added to each well. Color was allowed to develop at 37° C., 5% CO2, 90% Rh for 1-1.5 h or until reasonable signal appeared. The colorimetric reaction was stopped with the addition of 60 μL/well 1M sodium carbonate. Plates were counted at 405 nm on a SpectraMax Microplate Reader (Molecular Devices). Data was analyzed in Microsoft Excel and IC/EC50 curves were fit using a standardized macro.

[2] = target: T2, human adenosine A1 receptor (Homo sapiens, UniProt P30542); test: Adenosine A1 Receptor Functional Assay (A1GAL2); assay type: cell-based; conditions: CHO-K1 cells, cAMP inducible beta-galactosidase reporter, 4 nM r-PIA/1 uM Forskolin challenge
T2 construct: expressed in transfected cells; host or cells: CHO-K1
T2 sequence (P30542 1-326): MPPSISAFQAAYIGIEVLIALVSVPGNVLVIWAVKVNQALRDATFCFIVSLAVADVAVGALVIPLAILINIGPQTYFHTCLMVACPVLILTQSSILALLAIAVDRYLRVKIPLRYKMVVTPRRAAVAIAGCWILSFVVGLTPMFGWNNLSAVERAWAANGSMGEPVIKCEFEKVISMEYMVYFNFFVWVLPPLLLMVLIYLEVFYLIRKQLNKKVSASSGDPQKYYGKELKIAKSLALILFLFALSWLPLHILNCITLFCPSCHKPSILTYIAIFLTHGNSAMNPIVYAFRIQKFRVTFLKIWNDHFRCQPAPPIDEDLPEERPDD
Experimental: Adenosine A1 Receptor Functional Assay (A1GAL2)
To initiate the functional assay, cryopreserved CHO-K1 cells overexpressing the human adenosine A1 receptor and containing a cAMP inducible beta-galactosidase reporter gene were thawed, centrifuged, DMSO containing media removed, and then seeded with fresh culture media into clear 384-well tissue culture treated plates (BD #353961) at a concentration of 10K cells/well. Prior to assay, these plates were cultured for two days at 37° C., 5% CO2, 90% Rh. On the day of the functional assay, culture media was removed and replaced with 45 uL assay medium (Hams/F-12 Modified (Mediatech #10-080CV) supplemented w/0.1% BSA). Test compounds were diluted and 11 point curves created at a 1000× concentration in 100% DMSO. Immediately after addition of assay media to the cell plates, 50 nL of the appropriate test compound antagonist or agonist control curves were added to cell plates using a Cartesian Hummingbird. Compound curves were allowed to incubate at room temperature on cell plates for approximately 15 minutes before addition of a 4 nM r-PIA (Sigma P4532)/1 uM Forskolin (Sigma F3917) agonist challenge (5 uL volume). A control curve of r-PIA in 1 uM Forskolin, a DMSO/Media control, and a single dose of Forskolin were also included on each plate. After additions, cell plates were allowed to incubate at 37° C., 5% CO2, 90% Rh for 5.5-6 hours. After incubation, media was removed, and cell plates were washed 1×50 uL with DPBS w/o Ca & Mg (Mediatech 21-031-CV). Into dry wells, 20 uL of 1× Reporter Lysis Buffer (Promega E3971 (diluted in dH2O from 5× stock)) was added to each well and plates frozen at −20° C. overnight. For β-galactosidase enzyme calorimetric assay, plates were thawed out at room temperature and 20 μL 2× assay buffer (Promega) was added to each well. Color was allowed to develop at 37° C., 5% CO2, 90% Rh for 1-1.5 h or until reasonable signal appeared. The calorimetric reaction was stopped with the addition of 60 μL/well 1M sodium carbonate. Plates were counted at 405 nm on a SpectraMax Microplate Reader (Molecular Devices). Data was analyzed in Microsoft Excel and IC/EC50 curves were fit using a standardized macro.

[3] = target: T3, human A2a adenosine receptor (Homo sapiens, UniProt P29274); test: Ligand Binding Assay for Adenosine A2a Receptor; conditions: HEK293 plasma membrane, radioligand [3H]CGS21680; read-out: A2A-B Ki
T3 construct: purchased PerkinElmer RB-HA2a; host or cells: HEK293 plasma membranes
T3 sequence (P29274 whole entry): as the sequence (P29274 whole entry) above
Experimental: Ligand Binding Assay for Adenosine A2a Receptor
Ligand binding assay of adenosine A2a receptor was performed using plasma membrane of HEK293 cells containing human A2a adenosine receptor (PerkinElmer, RB-HA2a) and radioligand [^3H]CGS21680 (PerkinElmer, NET1021). Assay was set up in 96-well polypropylene plate in total volume of 200 μL by sequentially adding 20 μL 1:20 diluted membrane, 130 μL assay buffer (50 mM Tris.HCl, pH7.4 10 mM MgCl2, 1 mM EDTA) containing [^3H] CGS21680, 50 μL diluted compound (4×) or vehicle control in assay buffer. Nonspecific binding was determined by […] NECA. Reaction was carried out at room temperature for 2 hours before filtering through 96-well GF/C filter plate pre-soaked in 50 mM Tris.HCl, pH7.4 containing 0.3% polyethylenimine. Plates were then washed 5 times with cold 50 mM Tris.HCl, pH7.4, dried and sealed at the bottom. Microscintillation fluid 30 μL was added to each well and the top sealed. Plates were counted on Packard Topcount for [^3H]. Data was analyzed in Microsoft Excel and GraphPad Prism programs. (Varani, K.; Gessi, S.; Dalpiaz, A.; Borea, P. A. British Journal of Pharmacology, 1996, 117, 1693)

| Structure (SMILES) | Ki [1] [nM] | Ki [2] [nM] | Ki [3] [nM] |
| --- | --- | --- | --- |
| Nc1nc(-c2cccnc2)nc2sc(Cc3ccccc3)cc12 [Example 13, 6-Benzyl-2-pyridin-3-yl-thieno[2,3-d]pyrimidin-4-ylamine] | 215 | 1420 | 192 |
| Cn1cnc(-c2nc(N)c3cc(Cc4ccccc4)sc3n2)c1 [Example 20, 6-Benzyl-2-(1-methyl-1H-imidazol-4-yl)-thieno[2,3-d]pyrimidin-4-ylamine] | 539 | 2330 |  |
| Cc1ccc(-c2nc(N)c3cc(C(=O)c4cccc(CN5CCOCC5)c4)sc3n2)o1 [Example 5, [4-Amino-2-(5-methyl-furan-2-yl)-thieno[2,3-d]pyrimidin-6-yl]-(3-morpholin-4-ylmethyl-phenyl)-methanone] | 230 | 505 | 100 |
| Cc1ccc(-c2nc(N)c3cc(C(C)c4ccccc4)sc3n2)o1 (racemic) [Example 16, (±)-2-(5-Methyl-furan-2-yl)-6-(1-phenyl-ethyl)-thieno[2,3-d]pyrimidin-4-ylamine] | 47.8 | 910 |  |
| Cc1csc(-c2nc(N)c3cc(C4(c5ccccc5)CC4)sc3n2)n1 [Example 10, 2-(4-Methyl-thiazol-2-yl)-6-(1-phenyl-cyclopropyl)-thieno[2,3-d]pyrimidin-4-ylamine] | 107 | > 610 |  |
| COc1ccccc1Cc1cc2c(N)nc(-c3ccc(C(F)F)o3)nc2s1 [Example 39, 2-(5-Difluoromethyl-furan-2-yl)-6-(2-methoxy-benzyl)-thieno[2,3-d]pyrimidin-4-ylamine] | 13 | 516 |  |
| Cc1ccc(-c2nc(N)c3cc(/C=C/c4ccccc4)sc3n2)o1 [Example 33, 2-(5-Methyl-furan-2-yl)-6-styryl-thieno[2,3-d]pyrimidin-4-ylamine] | 236 | 3340 | 26 |
| Nc1nc(-c2ccc(C3CC3)o2)nc2sc(Cc3ccccc3)cc12 [Example 23, 6-Benzyl-2-(5-cyclopropyl-furan-2-yl)-thieno[2,3-d]pyrimidin-4-ylamine] | 263 | 861 |  |
| COc1ccccc1C(O)c1cc2c(N)nc(-c3ccc(C(F)F)o3)nc2s1 (centres unmarked) [Example 45, [4-Amino-2-(5-difluoromethyl-furan-2-yl)-thieno[2,3-d]pyrimidin-6-yl]-(2-methoxy-phenyl)-methanol] | 4.37 | 34.4 |  |
| Cc1csc(-c2nc(N)c3cc(Cc4ccccc4)sc3n2)n1 [Example 14, 6-Benzyl-2-(4-methyl-thiazol-2-yl)-thieno[2,3-d]pyrimidin-4-ylamine] | 16.1 | 1490 | 46.3 |
| N#Cc1ccc(-c2nc(N)c3cc(Cc4ccccc4)sc3n2)o1 [Example 18, 5-(4-Amino-6-benzyl-thieno[2,3-d]pyrimidin-2-yl)-furan-2-carbonitrile] | 304 | 3160 |  |
| COc1ccccc1Cc1cc2c(N)nc(-c3ccc(C)o3)nc2s1 [Example 12, 6-(2-Methoxy-benzyl)-2-(5-methyl-furan-2-yl)-thieno[2,3-d]pyrimidin-4-ylamine] | 10.1 | 115 | 51 |
| Cc1ccc(-c2nc(N)c3cc(C(O)c4ccccc4)sc3n2)o1 (centres unmarked) [Example 2, [4-Amino-2-(5-methyl-furan-2-yl)-thieno[2,3-d]pyrimidin-6-yl]-phenyl-methanol] | 2.28 | 20.8 |  |
| Cc1csc(-c2nc(N)c3cc(C(C)c4ccccc4)sc3n2)n1 (racemic) [Example 17, (±)-2-(4-Methyl-thiazol-2-yl)-6-(1-phenyl-ethyl)-thieno[2,3-d]pyrimidin-4-ylamine] | 100 | 1420 |  |
| Nc1nc(-c2cnco2)nc2sc(Cc3ccccc3)cc12 [Example 19, 6-Benzyl-2-oxazol-5-yl-thieno[2,3-d]pyrimidin-4-ylamine] | 2.48 | 100 |  |
| N#Cc1cccc(-c2nc(N)c3cc(Cc4ccccc4)sc3n2)n1 [Example 24, 6-(4-Amino-6-benzyl-thieno[2,3-d]pyrimidin-2-yl)-pyridine-2-carbonitrile] | 26.4 | > 1040 |  |
| C=C(c1ccccc1)c1cc2c(N)nc(-c3nc(C)cs3)nc2s1 [Example 9, 2-(4-Methyl-thiazol-2-yl)-6-(1-phenyl-vinyl)-thieno[2,3-d]pyrimidin-4-ylamine] | 31 | > 594 |  |
| Nc1nc(-c2ncccn2)nc2sc(Cc3ccccc3)cc12 [Example 25, 6-Benzyl-2-pyrimidin-2-yl-thieno[2,3-d]pyrimidin-4-ylamine hydrochloride] | 17.5 | 618 |  |
| COc1ccccc1Cc1cc2c(N)nc(-c3nc(C)cs3)nc2s1 [Example 15, 6-(2-Methoxy-benzyl)-2-(4-methyl-thiazol-2-yl)-thieno[2,3-d]pyrimidin-4-ylamine] | 13.2 | 186 |  |
| Cc1nc(-c2nc(N)c3cc(Cc4ccccc4)sc3n2)cs1 [Example 28, 6-Benzyl-2-(2-methyl-thiazol-4-yl)-thieno[2,3-d]pyrimidin-4-ylamine] | 57.2 | 263 |  |
| Cc1ccc(-c2nc(N)c3cc(C(=O)c4ccccc4CN4CCOCC4)sc3n2)o1 [Example 7, [4-Amino-2-(5-methyl-furan-2-yl)-thieno[2,3-d]pyrimidin-6-yl]-(2-morpholin-4-ylmethyl-phenyl)-methanone] |  |  | 328 |
| CCc1ccc(-c2nc(N)c3cc(Cc4ccccc4)sc3n2)o1 [Example 8, 6-Benzyl-2-(5-ethyl-furan-2-yl)-thieno[2,3-d]pyrimidin-4-ylamine] | 48.8 | 223 |  |
| Nc1nc(-c2cnccn2)nc2sc(Cc3ccccc3)cc12 [Example 32, 6-Benzyl-2-pyrazin-2-yl-thieno[2,3-d]pyrimidin-4-ylamine] | 2.42 | 90.9 |  |
